Experimental data from patent publication US6664231B1, “Anti-fungal peptides” (priority 1993, dated 2003).

Each substance was assayed on C. albicans (CA-1, Strain SLU-1) (assay: Radial diffusion assay). Conditions: HPLC-purified peptide; nanomoles required to achieve a net 30 mm^2 zone (log titration curve).
Format: cell-based, Candida albicans
Procedure, shortened: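 Peptides, serially diluted 2-fold in D-PBS (top ~1 mg/mL), diffused 3 h at 37° C into pH 7.4 phosphate-buffered agarose seeded with 1×10^6 CFU/mL yeast, before overnight growth under a 6% Sabouraud overlayer. Net inhibition zones measured after Coomassie staining; PROBIT fit of log pmol vs area gave pmol for 30 mm^2.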
For H-KVKWLIQL-NH2 [Peptide 300], the “Plate Assay (nmol), pure peptide activity” value was 0.993 nmol.
In the case of H-KVKWLIQLF-NH2 [Peptide 295], the “Plate Assay (nmol), pure peptide activity” value is reported as >2.612 nmol.
With H-KVKWLIQLFHK-NH2 [Peptide 288] the “Plate Assay (nmol), pure peptide activity” value was 0.279 nmol.
With H-KWLIQL-NH2 [compound 315] the “Plate Assay (nmol), pure peptide activity” value was >12.853 nmol.
For H-KWLIQLFH-NH2 [Peptide 302], the “Plate Assay (nmol), pure peptide activity” value was 2.07 nmol.

Same assay, conditions: crude peptide; nanomoles required to achieve a net 30 mm^2 zone (log titration curve)
In the case of H-KVKWLI-NH2 [compound 313], the “Plate Assay (nmol), crude peptide activity” value is reported as >11.05 nmol.
H-KVKWLIQ-NH2 [Peptide 306] was tested, and the “Plate Assay (nmol), crude peptide activity” value was >10.485 nmol.
For H-KVKWLIQL-NH2 [Peptide 300], the “Plate Assay (nmol), crude peptide activity” value was 1.957 nmol.
With H-KVKWLIQLF-NH2 [Peptide 295] the “Plate Assay (nmol), crude peptide activity” value was >1.977 nmol.
H-KVKWLIQLFH-NH2 [Peptide 291] was tested, and the “Plate Assay (nmol), crude peptide activity” value was >5.039 nmol.
With H-KVKWLIQLFHK-NH2 [Peptide 288] the “Plate Assay (nmol), crude peptide activity” value was 3.639 nmol.
H-KWLIQL-NH2 [compound 315] was tested, and the “Plate Assay (nmol), crude peptide activity” value was >5.069 nmol.
In the case of H-KWLIQLFH-NH2 [Peptide 302], the “Plate Assay (nmol), crude peptide activity” value is reported as >5.497 nmol.
In the case of H-LIQLFHK-NH2 [Peptide 310], the “Plate Assay (nmol), crude peptide activity” value is reported as >9.475 nmol.
H-LIQLFHKK-NH2 [Peptide 304] was tested, and the “Plate Assay (nmol), crude peptide activity” value was >8.290 nmol.
In the case of H-SKVKWL-NH2 [Peptide 312], the “Plate Assay (nmol), crude peptide activity” value is reported as >11.20 nmol.
H-SKVKWLI-NH2 [Peptide 305] was tested, and the “Plate Assay (nmol), crude peptide activity” value was >10.228 nmol.
For H-SKVKWLIQ-NH2 [Peptide 299], the “Plate Assay (nmol), crude peptide activity” value was >8.768 nmol.
In the case of H-SKVKWLIQL-NH2 [Peptide 294], the “Plate Assay (nmol), crude peptide activity” value is reported as >4.634 nmol.
H-SKVKWLIQLF-NH2 [Peptide 290] was tested, and the “Plate Assay (nmol), crude peptide activity” value was >2.233 nmol.
H-SKVKWLIQLFH-NH2 [Peptide 287] was tested, and the “Plate Assay (nmol), crude peptide activity” value was >3.509 nmol.
In the case of H-SKVKWLIQLFHK-NH2 [Peptide 285], the “Plate Assay (nmol), crude peptide activity” value is reported as >3.024 nmol.

Same assay, conditions: pmoles of peptide added to well to achieve a 30 mm^2 zone, PROBIT analysis; crude or purified (P′) peptide
In the case of H-KSKVAWLIQLFHKK-NH2 [XMP.35], the “C. albicans pmol/30 mm^2 zone” value is reported as 442 pmol/30 mm^2 zone.
With H-KSKVFWLIQLFHKK-NH2 [XMP.95] the “C. albicans pmol/30 mm^2 zone” value was >1398 pmol/30 mm^2 zone.
With H-KSKVGGLIQLFHKK-NH2 [XMP.249] the “C. albicans pmol/30 mm^2 zone” value was 1,242 pmol/30 mm^2 zone.
With H-KSKVGILIQLFHKK-NH2 [XMP.251] the “C. albicans pmol/30 mm^2 zone” value was 1,289 pmol/30 mm^2 zone.
With H-KSKVGKLIQLFHKK-NH2 [XMP.135] the “C. albicans pmol/30 mm^2 zone” value was 428 pmol/30 mm^2 zone.
For H-KSKVGLLIQLFHKK-NH2 [XMP.250], the “C. albicans pmol/30 mm^2 zone” value was 536 pmol/30 mm^2 zone.
H-KSKVGWLAQLFHKK-NH2 [XMP.38] was tested, and the “C. albicans pmol/30 mm^2 zone” value was 391 pmol/30 mm^2 zone.
For H-KSKVGWLIALFHKK-NH2 [XMP.39], the “C. albicans pmol/30 mm^2 zone” value was 1792 pmol/30 mm^2 zone.
For H-KSKVGWLIDLFHKK-NH2 [XMP.264], the “C. albicans pmol/30 mm^2 zone” value was 879 pmol/30 mm^2 zone.
For H-KSKVGWLIELFHKK-NH2 [XMP.263], the “C. albicans pmol/30 mm^2 zone” value was 1,197 pmol/30 mm^2 zone.
H-KSKVGWLIFLFHKK-NH2 [XMP.91] was tested, and the “C. albicans pmol/30 mm^2 zone” value was >3844 pmol/30 mm^2 zone.
With “H-KSKVGWLIFLFHKKKSKVGWLIFLFHKK-NH2 [XMP.275]” the “C. albicans pmol/30 mm^2 zone” value was “b (No detectable activity up to 5 μg/well)”.
In the case of “H-KSKVGWLIFLFHKKKSKVGWLIQLFHKK-NH2 [XMP.273]”, the “C. albicans pmol/30 mm^2 zone” value is reported as >2,120 pmol/30 mm^2 zone.
With H-KSKVGWLIKLFHKK-NH2 [XMP.92] the “C. albicans pmol/30 mm^2 zone” value was 299 pmol/30 mm^2 zone.
In the case of H-KSKVGWLILLFHKK-NH2 [XMP.86], the “C. albicans pmol/30 mm^2 zone” value is reported as >2048 pmol/30 mm^2 zone.
For “H-KSKVGWLILLFHKKKSKVGWLILLFHKK-NH2 [XMP.272]”, the “C. albicans pmol/30 mm^2 zone” value was >2,599 pmol/30 mm^2 zone.
With “H-KSKVGWLILLFHKKKSKVGWLIQLFHKK-NH2 [XMP.270]” the “C. albicans pmol/30 mm^2 zone” value was >722 pmol/30 mm^2 zone.
For H-KSKVGWLILLWHKK-NH2 [XMP.241], the “C. albicans pmol/30 mm^2 zone” value was >2,161 pmol/30 mm^2 zone.
For H-KSKVGWLINLFHKK-NH2 [XMP.262], the “C. albicans pmol/30 mm^2 zone” value was 984 pmol/30 mm^2 zone.
H-KSKVGWLIQAFHKK-NH2 [XMP.40] was tested, and the “C. albicans pmol/30 mm^2 zone” value was 253 pmol/30 mm^2 zone.
H-KSKVGWLIQFFHKK-NH2 [XMP.113] was tested, and the “C. albicans pmol/30 mm^2 zone” value was 947 pmol/30 mm^2 zone.
H-KSKVGWLIQLAHKK-NH2 [XMP.41] was tested, and the “C. albicans pmol/30 mm^2 zone” value was 734 pmol/30 mm^2 zone.
With H-KSKVGWLIQLFAKK-NH2 [XMP.42] the “C. albicans pmol/30 mm^2 zone” value was 548 pmol/30 mm^2 zone.
For H-KSKVGWLIQLFFKK-NH2 [XMP.94], the “C. albicans pmol/30 mm^2 zone” value was >923 pmol/30 mm^2 zone.
In the case of H-KSKVGWLIQLFHAK-NH2 [XMP.43], the “C. albicans pmol/30 mm^2 zone” value is reported as 785 pmol/30 mm^2 zone.
For H-KSKVGWLIQLFHKA-NH2 [XMP.44], the “C. albicans pmol/30 mm^2 zone” value was 578 pmol/30 mm^2 zone.
